ChEMBL document CHEMBL1125188, “Synthesis and evaluation of stilbene and dihydrostilbene derivatives as potential anticancer agents that inhibit tubulin polymerization” (J Med Chem, 1991)
pEC50: −log10 of the molar value.

Tests used:
SK-MEL-5 = assay: Cytotoxic concentration required to inhibit 50% cell growth in SKMEL-5 melanoma cell lines; type: functional; details: Homo sapiens, read-out: ED50 (the source's name)
MCF7 = assay: Cytotoxic concentration required to inhibit 50% cell growth in MCF-7 breast carcinoma cell lines; type: functional; details: Homo sapiens, read-out: ED50 (the source's name)
A549 = assay: Cytotoxic concentration required to inhibit 50% cell growth in A-549 lung carcinoma cell lines; type: functional; details: Homo sapiens, read-out: ED50 (the source's name)
Tubulin = Tubulin (Bos taurus, UniProt Q6B856+Q862L2+Q862F3); assay: Ability to inhibit Tubulin polymerization in Bovine brain; type: functional, tissue-based
MLM = assay: Cytotoxic concentration required to inhibit 50% cell growth in MLM melanoma cell lines; type: functional; details: Homo sapiens, read-out: ED50 (the source's name)
HT-29 = assay: Cytotoxic concentration required to inhibit 50% cell growth in HT-29 colon adenocarcinoma cell lines; type: functional; details: Homo sapiens, read-out: ED50 (the source's name)

| Compound | pEC50 (SK-MEL-5) | pEC50 (MCF7) | pEC50 (A549) | IC50 (Tubulin) [nM] | pEC50 (MLM) | pEC50 (HT-29) |
| --- | --- | --- | --- | --- | --- | --- |
| COc1ccc(CCc2cc(OC)c(OC)c(OC)c2)cc1O | 8.68 | 6.48 | 8.00 | 3300 | 8.00 | 7.09 |
| COc1cc(/C=C\c2ccc(N(C)C)cc2)cc(OC)c1OC | 9.82 | 8.24 | 8.39 | 3400 | 8.03 | 8.09 |
| COc1cc(CCc2ccc(N(C)C)cc2)cc(OC)c1OC | 7.23 | 7.19 | 7.08 | 29000 | 6.92 | 7.11 |
| COc1cccc(/C=C\c2cc(OC)c(OC)c(OC)c2)c1 | 7.22 | 6.85 | 6.89 | 8800 | 5.85 | 7.05 |
| COc1cc(/C=C\c2ccc(Cl)cc2)cc(OC)c1OC | 8.00 | 6.74 | 7.10 | 4800 | 6.77 | 7.30 |
| COc1ccc(/C=C\c2cc(OC)c(OC)c(OC)c2)c(Cl)c1 | 7.77 | 7.34 | 7.29 | 3500 | 6.85 | 7.18 |
| COc1ccc(CCc2cc(OC)c(OC)c(OC)c2)cc1 | 9.85 | 9.80 | 9.74 | 7900 | 9.74 | 9.60 |
| COc1ccc(/C=C\c2cc(OC)c(OC)c(OC)c2)cc1 | – | – | 10.66 | 2200 | 10.03 | 10.57 |
| COc1cc(/C=C\c2ccc(Br)cc2)cc(OC)c1OC | 8.17 | 7.80 | 7.96 | 3100 | 7.85 | 8.09 |
| COc1ccc(NCc2cc(OC)c(OC)c(OC)c2)cc1 | 9.15 | 8.62 | 8.72 | 23000 | 8.80 | 9.00 |
| COc1cc(/C=C\c2ccccc2)cc(OC)c1OC | 6.92 | 6.60 | 6.77 | 36000 | < 4.60 | 7.08 |
| COc1cc(/C=C\c2ccc(OC(C)=O)cc2)cc(OC)c1OC | 5.22 | 5.52 | 5.77 | 29000 | 5.20 | 5.22 |
| COc1ccc(NCc2cc(OC)cc(OC)c2)cc1 | 5.62 | 5.22 | 5.24 | 29000 | < 4.60 | 4.75 |
| COc1ccc(CNc2cc(OC)c(OC)c(OC)c2)cc1 | 5.95 | 6.07 | 6.08 | > 50000 | < 4.60 | 5.65 |
| COc1ccc(/C=C/c2cc(OC)c(OC)c(OC)c2)cc1 | 6.09 | 5.98 | 5.93 | > 50000 | 5.68 | 5.74 |
| COc1cc(/C=C/c2ccc(N(C)C)cc2)cc(OC)c1OC | 8.34 | 7.09 | 8.21 | > 50000 | 7.90 | 8.16 |
| COc1cccc2c1C(=O)c1c(O)c3c(c(O)c1C2=O)C[C@@](O)(C(=O)CO)C[C@@H]3O[C@H]1C[C@H](N)[C@H](O)[C@H](C)O1 [DOXORUBICIN] | 7.49 | 7.51 | 7.54 | – | 6.89 | 7.26 |
